Like-named read-outs stand apart in the source and are kept apart here. *1 amine or outer side, *2 acyl side, *3 side chain or, on linkers, in order; H or OH if unused. Where a SMILES comes first, the peptide text is derived from it. Bridges are numbered along the chain shown (N, C = ends). Maleimide(3,4-diyl) = O=C1NC(=O)C([*:2])=C1[*:1]
Columns and labels:
[1] = molecular target: T1, N‐Myc/Aurora‐A interaction (Aurora‐A122‐403‐C290A/C393A) (Homo sapiens, UniProt O14965, C290A/C393A); assay: competition fluorescence anisotropy (FA) assay against fluorescein labelled N‐Myc61‐89; format: binding; further: equilibrated 2 h at room temperature
T1 construct: Aurora‐A 122‐403‐C290A/C393A protein was produced as described previously; made in house
T1 sequence (O14965 122-403 C290A/C393A): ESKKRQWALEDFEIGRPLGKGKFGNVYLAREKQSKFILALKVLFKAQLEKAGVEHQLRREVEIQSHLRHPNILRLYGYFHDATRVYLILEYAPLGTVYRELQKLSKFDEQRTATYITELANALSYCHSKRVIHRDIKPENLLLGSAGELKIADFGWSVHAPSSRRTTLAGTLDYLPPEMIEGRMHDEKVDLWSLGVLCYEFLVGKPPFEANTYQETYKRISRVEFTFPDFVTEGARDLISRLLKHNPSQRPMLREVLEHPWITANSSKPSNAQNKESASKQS
Procedure: Fluorescence anisotropy (FA) assays: All assays were performed using 384‐well plates (Greiner Bio‐one, UK). […] All samples were prepared in 25 mM Tris, 150 mM NaCl, 5 mM MgCl2, pH 7.5, and tested in triplicate using an EnVisionTM 2103 MultiLabel plate reader (Perkin Elmer; Waltham, MA, USA). The parameters were set as follows: Excitation wavelength=480 nm (30 nm bandwidth) and emission wavelength=535 nm (30 nm bandwidth). Measured data were processed and analysed as previously described.[31] Specifically, the perpendicular intensity (P) and parallel intensity (S) were subtracted by the control values and used for calculations of intensity and anisotropy using the following Equations 1, 2, 3, 4, and 5: (1) I=2PG+S (2) r=S-PG (3) Lb=r-rmin/λrmax-r+r-rmin (4) [drawing 1] (5) y=rmax+rmin-rmax/1+(x/x0)^p
For competition FA assays, the average anisotropy and the average standard deviation of the values derived from equation (2) were calculated and fit to a sigmoidal logistic model (equation (5)) using Origin 2021. […] Results are reported as IC50±SD, with data points representing the mean of three replicates and error bars indicating the corresponding SD. Where applicable, ΔΔG was determined as follows: ΔΔG=−RT ln (ΔIC50).

[2] = circular dichroism (CD) spectroscopy; format: physicochemical; conditions: 150 mM NaCl, 5 mM MgCl2, pH 7.5, 5 °C, n=2, free‐thiol (red) samples with 5 mol equivalents TCEP; for MRE222 (mean residue ellipticity at 222 nm): 25 mM Tris, mean ± SD, SD; for % Helicity (estimated): from MRE222 by equation 7, 25 mM Tris
Procedure: Circular dichroism (CD): All samples were prepared in Tris buffer (25 mM Tris, 150 mM NaCl, 5 mM MgCl2, pH 7.5) with the exception of free sulfhydryl peptides, to which Tris(2‐carboxyethyl)phosphine (TCEP; 5 mol eq. relative to the peptide) was added. CD spectra were recorded using an APP Chirascan CD spectropolarimeter and 1 mm pathlength quartz cuvettes. Sample concentrations were typically 30–120 μM, as determined by UV−V absorption based on a tryptophan extinction coefficient of 5600 M^−1 cm^−1 and, for mal‐constrained variants, a maleimide coefficient of 1700 M^−1 cm^−1.[16, 32] […] Spectra were recorded in duplicate at 5 °C, over wavelengths ranging from 290 to 180 nm, with data collected every 1 nm (1 nm s^−1). A background spectrum for CD buffer alone was also recorded and background ellipticity values were subtracted from raw sample ellipticity values (θ) when calculating mean residue ellipticities (MREs) using Equation 6: (6) MRE=(θλ-θ0)xMw/nxlxc
Where [θ]λ is the observed ellipticity at a given wavelength λ in mdeg, [θ]0 is the ellipticity observed for the buffer, Mw =molar weight of the peptide in g mol^−1, n=number of residues; c=sample concentration (mg mL^−1); l=pathlength of the cuvette in mm. Estimates of peptide % helicity were made using Equation 7, [33] (7) %helicity=(MRE222-MREcoil)x100/-425001-3/n
where MRE222 is the MRE value at 222 nm, MREcoil=640‐45T (with T in °C)=415 deg cm^2 dmol^−1 res^−1 at 5 °C, and n is the number of backbone amide bonds including the N‐terminal acetyl.

**Q.** Which results are given for CSCC[C@H](NC(=O)[C@H](CCC(=O)O)NC(=O)[C@H](CS)NC(=O)[C@@H](NC(=O)[C@H](Cc1c[nH]c2ccccc12)NC(=O)[C@H](CO)NC(=O)[C@@H]1CCCN1C(=O)[C@@H]1CCCN1C(=O)[C@H](CCC(=O)O)NC(=O)[C@H](CO)NC(=O)[C@H](CO)NC(=O)[C@H](Cc1c[nH]cn1)NC(=O)[C@H](CCC(=O)O)NC(=O)[C@H](C)NC(=O)[C@H](Cc1ccccc1)NC(=O)CNC(=O)[C@H](CCCNC(=N)N)NC(=O)[C@H](CO)NC(=O)[C@@H]1CCCN1C(=O)[C@H](CO)NC(=O)[C@H](CC(C)C)NC(C)=O)C(C)C)C(=O)N[C@@H](CC(C)C)C(=O)N[C@@H](CS)C(=O)N[C@@H](CCC(=O)O)C(=O)N[C@@H](CC(N)=O)C(=O)N[C@@H](CCC(=O)O)C(=O)N[C@@H](CC(C)C)C(=O)N[C@@H](Cc1c[nH]c2ccccc12)C(=O)NCC(N)=O [N-Myc 61-89 T79C/L83C red] (Ac-LSPSRGFAEHSSEPPSWVCEMLCENELWG-NH2)?
**A.** IC50 ([1]; SD): 152 ± 15 µM; MRE222 (mean residue ellipticity at 222 nm) [2]: -1907 ± 23 deg cm^−1 dmol^−1 res^−1; % Helicity (estimated) [2]: 6 ± 1%

**Q.** With “Ac-EPPSWVTEMLLENELWGSPAEEDAF-NH2 [N‐Myc73‐97]” as the compound, how does the IC50 ([1]; SD) read?
**A.** 79 ± 4 µM

**Q.** What about the “MRE222 (mean residue ellipticity at 222 nm)” value (“MRE222” below) [2] of the same compound?
**A.** −4886±55 deg cm^−1 dmol^−1 res^−1

**Q.** What about the “% Helicity (estimated)” value [2] of the same compound?
**A.** 14±1%

**Q.** For CSCC[C@@H]1NC(=O)[C@H](CCC(=O)O)NC(=O)[C@H]([C@@H](C)O)NC(=O)[C@@H](NC(=O)[C@H](Cc2c[nH]c3ccccc23)NC(=O)[C@H](CO)NC(=O)[C@@H]2CCCN2C(=O)[C@@H]2CCCN2C(=O)[C@H](CCC(=O)O)NC(=O)[C@H](CO)NC(=O)[C@H](CO)NC(=O)[C@H](Cc2c[nH]cn2)NC(=O)[C@H](CCC(=O)O)NC(=O)[C@H](C)NC(=O)[C@H](Cc2ccccc2)NC(=O)CNC(=O)[C@H](CCCNC(=N)N)NC(=O)[C@H](CO)NC(=O)[C@@H]2CCCN2C(=O)[C@H](CO)NC(=O)[C@H](CC(C)C)NC(C)=O)CSC2=C(SC[C@@H](C(=O)N[C@@H](CC(C)C)C(=O)N[C@@H](CCC(=O)O)C(=O)N[C@@H](CC(N)=O)C(=O)N[C@@H](CCC(=O)O)C(=O)N[C@@H](CC(C)C)C(=O)N[C@@H](Cc3c[nH]c4ccccc34)C(=O)NCC(N)=O)NC1=O)C(=O)NC2=O [N-Myc 61-89 V78C/L82C mal] (Ac-LSPSRGFAEHSSEPPSWCTEMCLENELWG-NH2; linker 18-22 via Maleimide(3,4-diyl)), which IC50 [1] is on record?
**A.** ≥ 500 µM

**Q.** And the “MRE222” value [2]?
**A.** -1767 ± 72 deg cm^−1 dmol^−1 res^−1

**Q.** And the “% Helicity (estimated)” value [2]?
**A.** 6 ± 1%

**Q.** Which results are given for CSCC[C@H](NC(=O)[C@H](CS)NC(=O)[C@@H](NC(=O)[C@@H](NC(=O)[C@H](Cc1c[nH]c2ccccc12)NC(=O)[C@H](CS)NC(=O)[C@@H]1CCCN1C(=O)[C@@H]1CCCN1C(=O)[C@H](CCC(=O)O)NC(=O)[C@H](CO)NC(=O)[C@H](CO)NC(=O)[C@H](Cc1c[nH]cn1)NC(=O)[C@H](CCC(=O)O)NC(=O)[C@H](C)NC(=O)[C@H](Cc1ccccc1)NC(=O)CNC(=O)[C@H](CCCNC(=N)N)NC(=O)[C@H](CO)NC(=O)[C@@H]1CCCN1C(=O)[C@H](CO)NC(=O)[C@H](CC(C)C)NC(C)=O)C(C)C)[C@@H](C)O)C(=O)N[C@@H](CC(C)C)C(=O)N[C@@H](CC(C)C)C(=O)N[C@@H](CCC(=O)O)C(=O)N[C@@H](CC(N)=O)C(=O)N[C@@H](CCC(=O)O)C(=O)N[C@@H](CC(C)C)C(=O)N[C@@H](Cc1c[nH]c2ccccc12)C(=O)NCC(N)=O [N-Myc 61-89S76C/E80C red] (Ac-LSPSRGFAEHSSEPPCWVTCMLLENELWG-NH2)?
**A.** IC50 ([1]; SD): 140 ± 18 µM; MRE222 (mean residue ellipticity at 222 nm) [2]: -2428 ± 25 deg cm^−1 dmol^−1 res^−1; % Helicity (estimated) [2]: 7 ± 1%

**Q.** Which IC50 ([1]; SD) does the source give for CC(=O)N[C@@H](CC(C)C)C(=O)N[C@@H](CO)C(=O)N1CCC[C@H]1C(=O)N[C@@H](CO)C(=O)N[C@@H](CCCNC(=N)N)C(=O)NCC(=O)N[C@@H](Cc1ccccc1)C(=O)N[C@@H](C)C(=O)N[C@@H](CCC(=O)O)C(=O)N[C@@H](Cc1c[nH]cn1)C(=O)N[C@@H](CO)C(=O)N[C@@H](CO)C(=O)N[C@@H](CCC(=O)O)C(=O)N1CCC[C@H]1C(=O)N1CCC[C@H]1C(=O)N[C@@H](CO)C(=O)N[C@@H](Cc1c[nH]c2ccccc12)C(=O)N[C@H](C(=O)N[C@H](C(=O)N[C@@H](CCC(=O)O)C(=O)N[C@H]1CSSC[C@@H](C(=O)N[C@@H](CCC(=O)O)C(=O)N[C@@H](CC(C)C)C(=O)N[C@@H](Cc2c[nH]c3ccccc23)C(=O)NCC(N)=O)NC(=O)[C@H](CCC(=O)O)NC(=O)[C@H](CC(C)C)NC(=O)[C@H](CC(C)C)NC1=O)[C@@H](C)O)C(C)C [N-Myc 61-89 M81C/N85C ox] (Ac-LSPSRGFAEHSSEPPSWVTECLLECELWG-NH2; disulfide 21-25) here?
**A.** 92 ± 13 µM

**Q.** What about the “MRE222” value [2] of the same compound?
**A.** -2894 ± 119 deg cm^−1 dmol^−1 res^−1

**Q.** What about the “% Helicity (estimated)” value [2] of the same compound?
**A.** 9 ± 1%

**Q.** Which IC50 ([1]; SD) does the source give for CSCC[C@H](NC(=O)[C@@H]1CSSC[C@H](NC(=O)[C@@H]2CCCN2C(=O)[C@@H]2CCCN2C(=O)[C@H](CCC(=O)O)NC(=O)[C@H](CO)NC(=O)[C@H](CO)NC(=O)[C@H](Cc2c[nH]cn2)NC(=O)[C@H](CCC(=O)O)NC(=O)[C@H](C)NC(=O)[C@H](Cc2ccccc2)NC(=O)CNC(=O)[C@H](CCCNC(=N)N)NC(=O)[C@H](CO)NC(=O)[C@@H]2CCCN2C(=O)[C@H](CO)NC(=O)[C@H](CC(C)C)NC(C)=O)C(=O)N[C@@H](Cc2c[nH]c3ccccc23)C(=O)N[C@@H](C(C)C)C(=O)N[C@@H]([C@@H](C)O)C(=O)N1)C(=O)N[C@@H](CC(C)C)C(=O)N[C@@H](CC(C)C)C(=O)N[C@@H](CCC(=O)O)C(=O)N[C@@H](CC(N)=O)C(=O)N[C@@H](CCC(=O)O)C(=O)N[C@@H](CC(C)C)C(=O)N[C@@H](Cc1c[nH]c2ccccc12)C(=O)NCC(N)=O [N-Myc 61-89 S76C/E80 ox] (Ac-LSPSRGFAEHSSEPPCWVTCMLLENELWG-NH2; disulfide 16-20) here?
**A.** 84 ± 9 µM

**Q.** What about the “MRE222” value [2] of the same compound?
**A.** -2141 ± 88 deg cm^−1 dmol^−1 res^−1

**Q.** What about the “% Helicity (estimated)” value [2] of the same compound?
**A.** 7 ± 1%

**Q.** With CC(=O)N[C@@H](CC(C)C)C(=O)N[C@@H](CO)C(=O)N1CCC[C@H]1C(=O)N[C@@H](CO)C(=O)N[C@@H](CCCNC(=N)N)C(=O)NCC(=O)N[C@@H](Cc1ccccc1)C(=O)N[C@@H](C)C(=O)N[C@@H](CCC(=O)O)C(=O)N[C@@H](Cc1c[nH]cn1)C(=O)N[C@@H](CO)C(=O)N[C@@H](CO)C(=O)N[C@@H](CCC(=O)O)C(=O)N1CCC[C@H]1C(=O)N1CCC[C@H]1C(=O)N[C@@H](CO)C(=O)N[C@@H](Cc1c[nH]c2ccccc12)C(=O)N[C@H](C(=O)N[C@H](C(=O)N[C@@H](CCC(=O)O)C(=O)N[C@@H](CS)C(=O)N[C@@H](CC(C)C)C(=O)N[C@@H](CC(C)C)C(=O)N[C@@H](CCC(=O)O)C(=O)N[C@@H](CS)C(=O)N[C@@H](CCC(=O)O)C(=O)N[C@@H](CC(C)C)C(=O)N[C@@H](Cc1c[nH]c2ccccc12)C(=O)NCC(N)=O)[C@@H](C)O)C(C)C [N-Myc 61-89M81C/N85C red] (Ac-LSPSRGFAEHSSEPPSWVTECLLECELWG-NH2) as the compound, how does the IC50 ([1]; SD) read?
**A.** 164 ± 6 µM

**Q.** And the “MRE222” value [2]?
**A.** -2198 ± 93 deg cm^−1 dmol^−1 res^−1

**Q.** What about the “% Helicity (estimated)” value [2] of the same compound?
**A.** 7 ± 1%
